Laboratory results from patent publication US11401278B2, “Macrocyclic indole derivatives” (The Broad Institute, Inc., priority 2017, dated 2022).
pKd: −log10 of the molar value. Structures can show the parent of a compound that is named as a salt.

Experiments:
[1] = target: MCL1 protein (Homo sapiens (Human), UniProt Q07820); experiment: PIxEL: protein-protein interaction in permeabilized cells by ELISA (Assay 5); format: cell-based; conditions: permeabilized RKO cells, Biotin-BIM peptide 0.2 μM, serum free; median
Protocol: PI×EL: Protein-Protein Interaction in Permeabilized Cells by ELISA
Most MCL1 protein molecules are localized at the mitochondria outer membrane and sequester pro-apoptotic proteins through binding of their BCL2 homology domain 3 (BH3 domain). MEB buffer (150 mM mannitol, 10 mM HEPES pH 7.5, 50 mM KCl, 20 μM EDTA, 20 μM EGTA, 5 mM potassium succinate, 0.1% protease-free BSA (SIGMA) with low dose digitonin (0.002%) permeabilizes plasma membrane while leaves live mitochondria, where MCL1 maintains its native localization and conformation. Unlike biophysical assays (e.g. TR-FRET) that use truncated recombinant MCL1 protein, this assay uses full length endogenous MCL1 protein at mitochondria outer membrane. It measures the interaction between MCL1 protein and biotinylated BIM BH3 peptide. Compounds can compete with BIM BH3 peptide to bind to MCL1 protein. This serum free assay measures the affinity between MCL1 protein and compound in permeabilized cells, therefore it is not affected by serum binding and cell permeability, and can measure the intrinsic compound affinity.
On day 1, RKO colon cancer cell line cells were plated at 0.8 million cells/ml, 100 μl/well in 96-well flat bottom TC plates (Corning). MCL1 antibody (Santa Cruz sc-12756) were diluted at 200 fold (final concentration 1 μg/ml) in carbonate buffer (Thermo Fisher Scientific, pH 9.6), and 50 μl of diluted antibody was added to each well of high bind ELISA plates (SARSTEDT). Each plate was tapped to make sure liquid covering entire bottom of wells and incubate at 37° C. overnight.
On the second day, MCL1 antibody was washed from ELISA plate. 250 μl Odyssey® Blocking Buffer (PBS) (Li-Cor) was added to each well, incubated at room temperature for at least 1 hour, then washed once with 250 μl 1×PBST. Plates with RKO cells were gently washed once with 100 μl/well PBS, once with 100 μl/well MEB buffer without digitonin, then 100 μl of MEB buffer with 0.002% digitonin was gently added to each well. Compounds were added with HP Tecan compound dispenser in 3-fold dilution series, highest dose 30 μM, 10-dose per compound in quadruplicates. Biotin-BIM peptide (synthesized by 21st Century) was added with HP Tecan compound dispenser at 0.2 μM immediately after the addition of compounds. Plates were rocked for 1 hour at room temperature. Then MEB buffer was aspirated and 50 μl of CHAPS buffer (50 mM Tris-Cl, pH 7.4, 150 mM NaCl, 1% CHAPS, 1 mM EDTA, 1 mM EGTA, cOmplete protease inhibitors (Roche), PhosSTOP (Roche)) was added to each well. Plates were rocked for 1 hour at 4° C., then 45 μl cell lysate from each well were transferred to ELISA plates coated with MCL1 antibody. Plates were incubated overnight in the cold room with rocking.
On the third day, ELISA plates were washed once with 250 μl 1×PBST. Streptavidin-poly-HRP (Thermo Fisher Scientific) was diluted to 20 ng/ml in Odyssey blocking buffer plus 0.05% Triton-100, and 100 μl was added to each well of the ELISA plate. Plates were incubated at room temperature for 1 hour with rocking, then washed with 100 μL 1×PBST for 3 times. Each SuperSignal ELISA Femto Maximum Sensitivity substrate was added to a 50-ml tube and mixed, then 100 μl of mixed substrate was added to each well. Plates were shaken for 1 minute then luminescence was measured by Envision plate reader […]. Signal of each well were normalized by no-compound control and no-cell control. IC50 was calculated using Graphic Pad PRISM software.

[2] = target: MCL-1 (Homo sapiens (Human), UniProt Q07820, K194A/K197A/R201A); experiment: Protein-compound interaction assay (SPR assay, Assay 8); format: binding; conditions: immobilized MBP-MCL-1, 25° C., geometric mean; for koff: read-out: koff; for kon: read-out: kon
Excerpt: Assay 8 Protein-Compound Interaction Assay (SPR Assay)
The ability of the compounds described in this invention to bind to MCL-1 may be determined using surface plasmon resonance (SPR). This allows for the quantification of binding in terms of the equilibrium dissociation constant (KD [M]), as well as association and dissociation rate constants (kon [1/M 1/s] and koff [1/s], respectively). The measurements may be performed using Biacore® T200 or Biacore® S200 instruments (GE Healthcare).
For SPR measurements, recombinant MCL-1 (amino acids 173-321, N-terminal fused to Maltose Binding Protein (MBP) (SEQ ID 1) purchased from Beryllium (Bedford, Mass., USA)) was immobilized using standard amine coupling (Johnsson B et al, Anal Biochem. 1991 Nov. 1; 198(2):268-77). Briefly, carboxymethylated dextran biosensor chips (Series S Sensor Chip CMS, GE Healthcare) were activated with 1-ethyl-3-(3-dimethylaminopropyl)-carbodiimide hydrochloride (EDC) and N-hydroxysuccinimide (NHS) according to the supplier's instructions. MBP-MCL-1 was diluted in 1×PBS-P+ (GE Healthcare) and injected on the activated chip surface. Subsequently, a solution of 1 M ethanolamine-HCl (GE Healthcare) was injected to block unreacted groups, resulting in approximately 400-2500 response units (RU) of immobilized protein. A reference surface was generated by treatment with NHS-EDC and ethanolamine-HCl. Compounds were dissolved in 100% dimethylsulfoxide (DMSO) to a concentration of 10 mM and subsequently diluted in running buffer (1×PBS-P+ (GE Healthcare) [generated from PBS-P+ Buffer 10× (GE Healthcare): 0.2 M phosphate buffer with 27 mM KCl, 1.37 M NaCl and 0.5% Surfactant P20 (Tween 20).], 1% v/v DMSO). For SPR binding-measurements, serial dilutions of compound (eight dilution steps, typically ranging from 0.2 nM up to 1 μM) were injected over immobilized protein. […] Compounds were injected for 60 s followed by a dissociation time of up to 1000 s.
The double-referenced sensorgrams were fit to a simple reversible Langmuir 1:1 reaction mechanism as implemented in the Biacore® T200 and S200 evaluation software (T200 evaluation software version 2.0 and S200 evaluation software version 1.0, GE Healthcare).

MCL1 protein, sequence (Q07820 whole entry): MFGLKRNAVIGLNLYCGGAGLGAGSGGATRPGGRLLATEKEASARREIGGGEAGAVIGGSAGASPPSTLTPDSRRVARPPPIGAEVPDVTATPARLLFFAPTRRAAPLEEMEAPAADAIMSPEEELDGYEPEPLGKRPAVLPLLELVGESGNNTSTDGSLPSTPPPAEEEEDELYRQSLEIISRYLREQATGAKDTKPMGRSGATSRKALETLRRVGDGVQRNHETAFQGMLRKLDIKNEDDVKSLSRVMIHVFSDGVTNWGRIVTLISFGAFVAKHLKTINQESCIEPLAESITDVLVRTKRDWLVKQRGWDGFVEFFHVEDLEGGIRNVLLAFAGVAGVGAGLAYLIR
MCL-1, sequence (Q07820 whole entry K194A/K197A/R201A, looked up): as the sequence (Q07820 whole entry) above, with K194A, K197A, R201A counted along it

Compound	IC50 [1]	pKd [2]	koff [2]	kon [2]
CCc1c2c(nn1C)CN(C)S(=O)(=O)CCCn1c(C(=O)O)c(CCCOc3cccc4cc(F)ccc34)c3ccc(F)c-2c31 (single isomer, unassigned; enantiomer 1) [Example 8, (+)-3-Ethyl-4-fluoro-7-{3-[(6-fluoronaphthalen-1-yl)oxy]propyl}-2,14-dimethyl-13,13-dioxo-10,11,12,13,14,15-hexahydro-2H-13λ^6-pyrazolo[3′,4′:4,5][1,2,8]thiadiazacycloundecino-[6,7,8-hi]indole-8-carboxylic acid (Enantiomer 1)]	552 nM	8.44	0.008 s⁻¹	2.2e+06 M⁻¹ s⁻¹
CCc1c2c(nn1C)CN(C)S(=O)(=O)CCCn1c(C(=O)O)c(CCCOc3cccc4cc(F)ccc34)c3ccc(Cl)c-2c31 (single isomer, unassigned; enantiomer 1) [Example 36, (+)-4-chloro-3-ethyl-7-{3-[(6-fluoronaphthalen-1-yl)oxy]propyl}-2,14-dimethyl-13,13-dioxo-10,11,12,13,14,15-hexahydro-2H-13lambda^6-pyrazolo[3′,4′:4,5][1,2,8]thiadiazacycloundecino-[6,7,8-hi]indole-8-carboxylic acid (Enantiomer 1)]	86.6 nM	8.40	0.004 s⁻¹	1e+06 M⁻¹ s⁻¹
Cc1c2c(nn1C)CN(C1CC1)S(=O)(=O)CCCn1c(C(=O)O)c(CCCOc3cccc4cc(F)ccc34)c3ccc(Cl)c-2c31 (single isomer, unassigned; enantiomer 1) [Example 42, (−)-4-chloro-14-cyclopropyl-7-{3-[(6-fluoro-1-naphthyl)oxy]propyl}-2,3-dimethyl-11,12,14,15-tetrahydro-2H,10H-pyrazolo[3′,4′:4,5][1,2,8]thiadiazacycloundecino[6,7,8-hi]indole-8-carboxylic acid 13,13-dioxide N-diethylamine salt (Enantiomer 1)]	157 nM	8.12	0.016 s⁻¹	2.1e+06 M⁻¹ s⁻¹
CCc1c2c(nn1C)C(CCC1CCOCC1)N(C)S(=O)(=O)CCCn1c(C(=O)O)c(CCCOc3cccc4cc(F)ccc34)c3ccc(Cl)c-2c31 (single isomer, unassigned; enantiomer 1) [Example 61, (+)-4-chloro-3-ethyl-7-{3-[(6-fluoronaphthalen-1-yl)oxy]propyl}-2,14-dimethyl-15-[2-(oxan-4-yl)ethyl]-13,13-dioxo-10,11,12,13,14,15-hexahydro-2H-13lambda^6-pyrazolo[3′,4′:4,5][1,2,8]thiadiazacycloundecino[6,7,8-hi]indole-8-carboxylic acid (Enantiomer 1)]	14.2 nM	8.72	0.0012 s⁻¹	590000 M⁻¹ s⁻¹
Cc1c2c(nn1C)CN(C)S(=O)(=O)CCCn1c(C(=O)O)c(CCCOc3cccc4cc(F)ccc34)c3ccc(F)c-2c31 (single isomer, unassigned; enantiomer 2) [Example 39, (+)-4-fluoro-7-{3-[(6-fluoronaphthalen-1-yl)oxy]propyl}-2,3,14-trimethyl-13,13-dioxo-10,11,12,13,14,15-hexahydro-2H-13lambda^6-pyrazolo[3′,4′:4,5][1,2,8]thiadiazacycloundecino-[6,7,8-hi]indole-8-carboxylic acid (Enantiomer 2)]	506 nM	8.28	0.018 s⁻¹	3.4e+06 M⁻¹ s⁻¹
Cc1c2c(nn1C)CN(C1CC1)S(=O)(=O)CCCn1c(C(=O)O)c(CCCOc3cccc4ccccc34)c3ccc(Cl)c-2c31 [Example 40, (rac)-4-chloro-14-cyclopropyl-2,3-dimethyl-7-[3-(1-naphthyloxy)propyl]-11,12,14,15-tetrahydro-2H,10H-pyrazolo[3′,4′:4,5][1,2,8]thiadiazacycloundecino[6,7,8-hi]indole-8-carboxylic acid 13,13-dioxide]	29400 nM	–	–	–
